Measured values taken from PubChem BioAssay (NCI).
Where “and” joins values, the source holds several entries; their conditions need not be identical. Identical values can stand only once.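 Where inhibition never reached the appropriate level, the endpoint shown equals the highest concentration tested. Otherwise, values were interpolated linearly from a five-concentration, 48-hour dose response in 96-well plates. GI50: concentration for 50% inhibition of growth. The concentration for full growth arrest is given as TGI.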

Experiments:
Assay in all cases: growth of human tumour cells (NCI), 48 h
[1] = tested on: LOX IMVI melanoma
[2] = tested on: IGROV1 ovarian
[3] = tested on: OVCAR-8 ovarian
[4] = tested on: SK-OV-3 ovarian
[5] = tested on: K-562 leukemia
[6] = tested on: SK-MEL-2 melanoma
[7] = tested on: UO-31 renal
[8] = tested on: ACHN renal
[9] = tested on: SK-MEL-28 melanoma
[10] = tested on: NCI-H23 lung

SMILES	GI50 [1]	TGI [1]	GI50 [2]	TGI [2]	GI50 [3]	TGI [3]	GI50 [4]	GI50 [5]	TGI [5]	GI50 [6]	GI50 [7]	TGI [7]	GI50 [8]	TGI [8]	GI50 [9]	TGI [9]	GI50 [10]	TGI [10]	TGI [4]	TGI [6]
COc1cccc(C2C3=C(COC3=O)N(CCO)c3cc(OC)ccc32)c1 (stereo unspecified)	0.227 µM	> 100 µM	0.305 µM	> 100 µM	0.206 µM	> 100 µM	0.109 µM	0.0895 µM	> 100 µM	0.536 µM	0.187 µM	> 100 µM	0.23 µM	> 100 µM	0.13 µM	> 100 µM	0.172 µM	> 100 µM	–	–
S=C(N/N=C(/c1ccccc1)c1ccccn1)N1CCCCC1	–	1.95 µM and 1.32 µM	< 0.001 µM	1.65 µM and 2.56 µM	< 0.001 µM	1.96 µM and 1.69 µM	< 0.001 µM	< 0.001 µM	< 0.001 µM	< 0.001 µM	0.468 µM	2.01 µM and 1.54 µM	< 0.001 µM	1.49 µM and 1.46 µM	1.08 µM	2.55 µM and 2.82 µM	–	1.74 µM	2.36 µM and 1.24 µM	2.01 µM and 2.36 µM
C/C=C/C1=C(Cl)C(=O)[C@@H](Cl)[C@@]1(O)C(=O)OC	–	6.37 µM	–	14.1 µM	–	6.45 µM	–	–	14.4 µM	–	–	10.2 µM	–	6.59 µM	–	14.2 µM	–	10.1 µM	30.6 µM	7.56 µM
Cn1cc(C2=C(c3cccc(N)c3)C(=O)NC2=O)c2ccccc21	8.76 µM	> 25 µM	> 22.4 µM	> 25 µM	17.4 µM	> 25 µM	> 19 µM	8.86 µM	> 25 µM	14.3 µM	14.1 µM	> 25 µM	5.85 µM	> 25 µM	> 25 µM	> 25 µM	20.9 µM	> 25 µM	> 25 µM	> 25 µM
CCOc1ccc(-c2cnnn2-c2nonc2-n2cccc2)cc1	0.46 µM	> 100 µM	0.581 µM	> 100 µM	0.439 µM	> 100 µM	0.274 µM	0.0638 µM	> 100 µM	0.308 µM	0.376 µM	> 88.8 µM	0.689 µM	> 100 µM	0.402 µM	> 100 µM	0.282 µM	–	1.02 µM	> 100 µM
Cn1ccnc1C(=O)/C=C/c1ccc(C(=O)Nc2ccc(S(F)(F)(F)(F)F)cc2)cc1	1.01 µM	3.25 µM	3.08 µM	> 14.3 µM	2.03 µM	> 14.3 µM	> 14.3 µM	0.385 µM	> 14.3 µM	> 14.3 µM	2.22 µM	> 14.3 µM	5.12 µM	> 14.3 µM	> 14.3 µM	> 14.3 µM	0.853 µM	> 14.3 µM	> 14.3 µM	> 14.3 µM
CC(C)Nc1ccc(Nc2ccccc2)cc1	13.1 µM	29.1 µM	14.2 µM	37.3 µM	11.6 µM	26.5 µM	39.9 µM	15.6 µM	52.5 µM	25.6 µM	14.1 µM	64.9 µM	3.31 µM	15 µM	28.1 µM	95.1 µM	14.2 µM	65.3 µM	> 100 µM	66.3 µM
CN(C)CCN(C)CC1COC(C)(C)O1 (stereo unspecified)	–	> 100 µM	–	> 100 µM	–	> 100 µM	–	–	> 100 µM	–	–	> 100 µM	–	> 100 µM	–	> 100 µM	–	> 100 µM	> 100 µM	> 100 µM
COc1cc(-n2cc(-c3ccc(F)cc3)nc2SCc2ccccc2)cc(OC)c1OC	> 100 µM	> 100 µM	> 100 µM	> 100 µM	> 100 µM	> 100 µM	> 100 µM	8.1 µM	> 100 µM	> 100 µM	9.66 µM	> 100 µM	> 100 µM	> 100 µM	> 100 µM	> 100 µM	> 100 µM	> 100 µM	> 100 µM	> 100 µM
CCOC(=O)c1c(-c2ccccc2)oc(-c2ccccc2)c1C(=O)OCC	–	> 100 µM	–	> 100 µM	–	> 100 µM	–	–	> 100 µM	–	–	> 100 µM	–	> 100 µM	–	> 100 µM	–	> 100 µM	> 100 µM	> 100 µM
O=C1c2cccnc2C(=O)C2C3C=CC(C3)C12 (stereo unspecified)	–	15.7 µM	–	24 µM	–	30 µM	–	–	34.9 µM	–	–	28.1 µM	–	20.4 µM	–	39.3 µM	–	58 µM	43.9 µM	16.9 µM
CC(=O)O[C@@]12CO[C@@H]1C[C@H](O)[C@@]1(C)C(=O)[C@H](O)C3=C(C)[C@@H](OC(=O)[C@H](O)[C@@H](NC(=O)OC(C)(C)C)c4ccccc4)C[C@@](O)([C@@H](OC(=O)c4ccccc4)[C@H]21)C3(C)C	0.00308 µM and 0.00368 µM	42.1 µM	0.0593 µM and 0.0198 µM	> 79 µM	0.0139 µM and 0.0138 µM	> 79.3 µM	0.0521 µM and < 0.0174 µM	0.0147 µM and 0.0122 µM	71.9 µM	0.0269 µM	0.247 µM	18 µM	0.156 µM	67.1 µM	0.0327 µM and 0.0359 µM	36.5 µM	0.0192 µM	> 67.2 µM	0.0491 µM	–
COc1cc2cc(C(=O)CCC(=O)O)sc2cc1OC	> 100 µM	> 100 µM	> 100 µM	> 100 µM	> 100 µM	> 100 µM	62.4 µM	> 100 µM	> 100 µM	> 100 µM	> 100 µM	> 100 µM	> 100 µM	> 100 µM	> 100 µM	> 100 µM	> 100 µM	> 100 µM	> 100 µM	> 100 µM
CCOC(=O)N1C2C=C(C)C(ON2C(=O)c2ccccc2)C2C(C)C(=O)N21 (stereo unspecified)	–	> 100 µM	–	> 100 µM	–	> 100 µM	–	–	> 100 µM	–	–	> 100 µM	–	> 100 µM	–	> 100 µM	–	> 100 µM	> 100 µM	> 100 µM
CC(C)(O)C#Cc1ccc(/C=C/C(=O)c2ccccc2)s1	13.8 µM	26.7 µM	14.7 µM	27.8 µM	15.9 µM	29.9 µM	16.5 µM	16.5 µM	56.3 µM	17.6 µM	14.5 µM	27.6 µM	17 µM	30.7 µM	16 µM	30.2 µM	16.9 µM	34.7 µM	30.1 µM	33.9 µM
Oc1ccc(CN2CCC(N3CCOCC3)CC2)c2cccnc12	29.9 µM	> 100 µM	30.9 µM	> 100 µM	34.3 µM	> 100 µM	> 100 µM	28.1 µM	> 100 µM	52.8 µM	14.7 µM	63.8 µM	25.1 µM	> 100 µM	37.6 µM	> 100 µM	35 µM	> 100 µM	> 100 µM	> 100 µM
O=c1ccc(N=Nc2ccc([N+](=O)[O-])cc2)ccc1O	3.36 µM	> 100 µM	6.33 µM	> 100 µM	3.97 µM	> 100 µM	28.4 µM	3.83 µM	> 100 µM	9.33 µM	5.35 µM	> 100 µM	7.07 µM	> 100 µM	8.65 µM	> 100 µM	6.37 µM	> 100 µM	> 100 µM	73.6 µM
CC(=O)N1c2ccccc2C2=CC3C4C(=O)N(c5ccccc5)C(=O)C4C21C1C(=O)N(c2ccccc2)C(=O)C31 (stereo unspecified)	–	> 100 µM	–	> 100 µM	–	> 100 µM	–	–	> 100 µM	–	–	> 100 µM	–	> 100 µM	–	> 100 µM	–	> 100 µM	> 100 µM	56.2 µM
CCOC(=O)c1sc2ncn(Cc3cccc(Br)c3)c(=O)c2c1C	84.9 µM	> 100 µM	0.172 µM	> 100 µM	51.1 µM	> 100 µM	> 100 µM	16.8 µM	> 100 µM	17.7 µM	34.2 µM	> 100 µM	84.6 µM	> 100 µM	71.6 µM	> 100 µM	66.7 µM	> 100 µM	> 100 µM	81 µM
N#Cc1cccc(OCc2nc(N)nc(N)c2-c2ccc(Cl)c(Cl)c2)c1	0.575 µM	> 100 µM	1.46 µM	> 100 µM	0.765 µM	> 100 µM	9.56 µM	0.384 µM	> 100 µM	6.68 µM	3.23 µM	> 100 µM	0.896 µM	> 100 µM	14.5 µM	> 100 µM	2.42 µM	> 100 µM	> 100 µM	> 100 µM
Fc1ccc(-c2nn3c(-c4ccc(F)c(Cl)c4)nnc3s2)cc1	32.8 µM	> 50 µM	33.1 µM	> 50 µM	37.1 µM	> 50 µM	19.4 µM	34.3 µM	> 50 µM	> 50 µM	28.6 µM	> 50 µM	29.1 µM	> 50 µM	> 50 µM	> 50 µM	> 50 µM	> 50 µM	> 50 µM	> 50 µM
O=c1c2c3c(sc2n2c(-c4cc(-c5ccccc5)no4)nnc2n1Cc1ccccc1)CCCC3	7.76 µM	> 62.4 µM	8.22 µM	87.6 µM	21.4 µM	> 100 µM	38.4 µM	7.01 µM	> 68.1 µM	4 µM	27.1 µM	> 100 µM	9.32 µM	> 100 µM	22.9 µM	76 µM	36.6 µM	> 100 µM	> 100 µM	23.5 µM
C/C=C/C/C=C/CCC(=O)[C@H]1O[C@H]1C(N)=O	8.38 µM	21.5 µM	13.5 µM	33.3 µM	17.7 µM	> 74.3 µM	27 µM	19 µM	> 86.8 µM	15.9 µM	9.21 µM	22.9 µM	–	26.9 µM	–	28.3 µM	–	29.9 µM	> 72.7 µM	32.5 µM
Cc1noc2cccc(OCc3ccccc3)c12	–	> 100 µM	–	> 100 µM	–	> 100 µM	–	–	> 100 µM	–	–	> 100 µM	–	> 100 µM	–	> 100 µM	–	> 100 µM	> 100 µM	94.5 µM
CCOC(=O)/C(=N\OC)C(O)C(F)(F)F (stereo unspecified)	–	> 100 µM	–	> 100 µM	–	> 100 µM	–	–	> 100 µM	–	–	> 100 µM	–	> 100 µM	–	> 100 µM	–	> 100 µM	> 100 µM	> 100 µM
CCN(CC)c1ccc(/C=C2/C[N+](C)(C)C/C(=C/c3ccc(N(CC)CC)cc3)C2=O)cc1	–	6.16 µM	–	6.57 µM	–	14.7 µM	–	–	7.91 µM	–	–	> 100 µM	–	> 100 µM	–	4.09 µM	–	10.3 µM	> 78.5 µM	3.92 µM
O=C(O)C1=CCCc2ccc3ccccc3c21	–	> 100 µM	–	> 100 µM	–	> 100 µM	–	–	> 100 µM	–	–	> 100 µM	–	> 100 µM	–	> 100 µM	–	> 100 µM	> 100 µM	> 100 µM
CC(=O)Nc1ccc(/C=C/C(=O)c2ccccc2)cc1	4.71 µM	18.9 µM	9.44 µM	30.6 µM	12.3 µM	30.4 µM	27.1 µM	3.28 µM	> 100 µM	19.7 µM	5.3 µM	21.2 µM	13.1 µM	29.6 µM	20.5 µM	44.2 µM	17.5 µM	43.2 µM	96 µM	35.5 µM
Cc1cc2cc3cc(C)c(N(C)C)cc3[n+](C)c2cc1N(C)C	3.14 µM	40.8 µM	5.04 µM	> 100 µM	2.72 µM	14.7 µM	5.05 µM	3.14 µM	> 100 µM	4.57 µM	5.05 µM	70.7 µM	3.69 µM	> 100 µM	2.64 µM	8.53 µM	2.77 µM	31.2 µM	> 100 µM	> 100 µM
